Assays:
Type in all cases: cell-based, human
PANC-1 cells = test: CCK-8 anti-proliferative assay, PANC-1; conditions: Homo sapiens, PANC-1; Table 15; comparative compounds; co-incubated 48 h; read-out: Anti-proliferative activity (IC50 ± standard deviation) PANC-1
Description: (§1) The obtained quinazolinyl-aryl urea derivatives were screened for compounds with optimal activity using the following method. All cell lines employed in this experiment were of human origin, including: bladder cancer cells: J82, UM-UC-3, T24, 5637, pancreatic cancer cells: BxPC-3, PANC-1, osteosarcoma cells: 143B, MG-63, cervical cancer cells: HeLa, breast cancer cells: MCF-7, NSCLC cells: A549, hepatoblastoma cells: Hep G2, and ovarian cancer cells: SK-OV-3, as well as normal cell lines: immortalized ureteral epithelial cells (SV-HUC-1), embryonic lung fibroblasts (WI-38).
(§2) Experimental Procedure for Anti-Proliferative Activity Evaluation: The CCK-8 assay was employed. Cells in logarithmic growth phase were harvested, adjusted to appropriate density, and uniformly seeded into 96-well plates using a multichannel pipette (180 μL cell suspension containing complete medium per well, 5,000 cells/well). Blank control wells (containing basal medium, CCK-8 solution, and DMSO only) were set. Cells were incubated at 37° C. under 5% CO2. After 70% confluency was reached, test compounds (target compounds/positive controls) were added at final concentrations of 1, 2, 4, 6, 8, 12, 16, 24, and 30 μM (3 repeated wells per concentration). Compounds were pre-dissolved in DMSO, sterilized, and diluted with medium before adding 20 μL/well. After co-incubation for designated durations, 10 μL CCK-8 solution was added per well followed by 1-4 h incubation (different cells have different incubation times). The reaction was terminated, and OD (optical density) values at 450 nm were measured using a microplate reader. Inhibition rates were calculated as: (ODcontrol−ODtreatment)/ODcontrol×100%. Median inhibitory concentrations (IC50 values) were derived using Origin v8.0 software.

UM-UC-3 cells = test: CCK-8 anti-proliferative assay, UM-UC-3; conditions: Homo sapiens, UMUC3; Table 14; comparative compounds; co-incubated 48 h; read-out: Anti-proliferative activity (IC50 ± standard deviation) UM-UC-3
Experimental: (§3) The obtained quinazolinyl-aryl urea derivatives were screened for compounds with optimal activity using the following method.
as §2, with “The reaction was terminated, and OD (optical density) values at 450 nm were measured using a microplate reader.” left out

BxPC-3 cells = test: CCK-8 anti-proliferative assay, BxPC-3; conditions: Homo sapiens, BXPC-3; Table 15; comparative compounds; co-incubated 48 h; read-out: Anti-proliferative activity (IC50 ± standard deviation) BxPC-3
Description: as §1, §2

MG-63 cells = test: CCK-8 anti-proliferative assay, MG-63; conditions: Homo sapiens, MG-63; Table 14; comparative compounds; co-incubated 48 h; read-out: Anti-proliferative activity (IC50 ± standard deviation) MG-63
Description: as §1, §2

143B cells = test: CCK-8 anti-proliferative assay, 143B; conditions: Homo sapiens, 143B; Table 14; comparative compounds; co-incubated 48 h; read-out: Anti-proliferative activity (IC50 ± standard deviation) 143B
Description: as §1, §2

SK-OV-3 cells = test: CCK-8 anti-proliferative assay, SK-OV-3; conditions: Homo sapiens, SK-OV-3; Table 15; comparative compounds; co-incubated 48 h; read-out: Anti-proliferative activity (IC50 ± standard deviation) SK-OV-3
Experimental: as §3
as §2, with “The reaction was terminated, and OD (optical density) values at 450 nm were measured using a microplate reader.” left out

T24 cells = test: CCK-8 anti-proliferative assay, T24; conditions: Homo sapiens, T-24; Table 16; comparative compounds 8-1 to 8-23; co-incubated 48 h; read-out: Anti-proliferative activity (IC50 ± standard deviation) T24
Description: as §1, §2

5637 cells = test: CCK-8 anti-proliferative assay, 5637; conditions: Homo sapiens; Table 16; comparative compounds 8-1 to 8-23; co-incubated 48 h; read-out: Anti-proliferative activity (IC50 ± standard deviation) 5637
Experimental: as §3
as §2, with “The reaction was terminated, and OD (optical density) values at 450 nm were measured using a microplate reader.” left out

MCF-7 cells = test: CCK-8 anti-proliferative assay, MCF-7; conditions: Homo sapiens, MCF7; Table 16; comparative compounds 8-1 to 8-23; co-incubated 48 h; read-out: Anti-proliferative activity (IC50 ± standard deviation) MCF-7
Experimental: as §3
as §2, with “The reaction was terminated, and OD (optical density) values at 450 nm were measured using a microplate reader.” left out

Hep G2 cells = test: CCK-8 anti-proliferative assay, Hep G2; conditions: Homo sapiens, HepG2; Table 16; comparative compounds 8-1 to 8-23; co-incubated 48 h; read-out: Anti-proliferative activity (IC50 ± standard deviation) Hep G2
Description: as §1, §2

A549 cells = test: CCK-8 anti-proliferative assay, A549; conditions: Homo sapiens, A549; Table 16; comparative compounds 8-1 to 8-23; co-incubated 48 h; read-out: Anti-proliferative activity (IC50 ± standard deviation) A549
Experimental: as §3
as §2, with “The reaction was terminated, and OD (optical density) values at 450 nm were measured using a microplate reader.” left out

SMILES	IC50 (PANC-1 cells) [µM]	IC50 (BxPC-3 cells) [µM]	IC50 (SK-OV-3 cells) [µM]	IC50 (T24 cells) [µM]	IC50 (MCF-7 cells) [µM]	IC50 (A549 cells) [µM]	IC50 (UM-UC-3 cells) [µM]	IC50 (MG-63 cells) [µM]	IC50 (143B cells) [µM]	IC50 (5637 cells) [µM]	IC50 (Hep G2 cells) [µM]
COc1cc2ncnc(NCc3cccc(NC(=O)Nc4ccc(F)cc4)c3)c2cc1OC [Compound I-9, reference compound]	10.7 ± 0.95	8.62 ± 0.86	10 ± 0.53				9.56 ± 0.72	14.8 ± 1.22	6.11 ± 0.42		
COc1ccccc1NC(=O)Nc1cccc(CNc2ncnc3cc(OC)c(OC)cc23)c1 [Compound I-6, reference compound]	26.5 ± 2.36	23.6 ± 1.47	9.12 ± 0.44				20.6 ± 2.37	25.4 ± 1.74	19.3 ± 1.67		
COc1cc2ncnc(NCc3cccc(NC(=O)Nc4ccccc4)c3)c2cc1OC [Compound I-1, reference compound]	> 30	18.6 ± 1.66	28.4 ± 1.46				> 30	27.1 ± 1.45	18.3 ± 1.74		
COc1ccc(NC(=O)Nc2cccc(CNc3ncnc4cc(OC)c(OC)cc34)c2)cc1 [Compound I-7, reference compound]	> 30	22.8 ± 1.71	13.7 ± 0.85				18.6 ± 1.35	> 30	21.3 ± 1.59		
COc1cc2ncnc(NCc3cccc(NC(=O)NCc4ccccc4)c3)c2cc1OC [Compound I-14, reference compound]	> 30	12.3 ± 0.56	19.7 ± 0.73				> 30	> 30	> 30		
CCc1ccccc1NC(=O)Nc1cccc(CNc2ncnc3cc(OC)c(OC)cc23)c1 [Compound I-5, reference compound]	12.5 ± 0.97	6.54 ± 0.61	7.76 ± 0.38				10.5 ± 0.71	13.4 ± 0.95	6.47 ± 0.28		
COc1cc2ncnc(NCc3cccc(NC(=O)Nc4ccc(C)cc4)c3)c2cc1OC [Compound I-2, reference compound]	24.4 ± 1.69	10.3 ± 0.59	10.1 ± 0.69				11.2 ± 0.85	11.2 ± 0.67	6.34 ± 0.56		
COc1cc2ncnc(NCc3cccc(NC(=O)NCc4ccccc4)c3)c2cc1OCCCC(=O)N1CCC(N2CCOCC2)CC1 [Compound 8-23, reference compound]				> 30	23.1 ± 0.92	> 30				26.8 ± 0.63	> 30
COc1cc2ncnc(NCc3cccc(NC(=O)Nc4ccccc4Cl)c3)c2cc1OC [Compound I-10, reference compound]	11.7 ± 0.82	9.85 ± 0.76	11.2 ± 0.92				8.77 ± 0.41	11.1 ± 0.54	7.74 ± 0.39		
COc1cc2ncnc(NCc3cccc(NC(=O)Nc4ccc(F)cc4)c3)c2cc1OCCCC(=O)N1CCC(N2CCOCC2)CC1 [Compound 8-13, reference compound]				19.5 ± 0.27	21.5 ± 0.47	> 30				13.9 ± 0.43	> 30
COc1cc2ncnc(NCc3cccc(NC(=O)Nc4ccc(C)cc4C)c3)c2cc1OC [Compound I-3, reference compound]	17.6 ± 1.48	7.78 ± 0.69	9.17 ± 0.58				9.02 ± 0.74	12.1 ± 0.76	5.94 ± 0.33		
COc1cc2ncnc(NCc3cccc(NC(=O)Nc4ccc(Cl)cc4)c3)c2cc1OCCCC(=O)N1CCC(N2CCOCC2)CC1 [Compound 8-15, reference compound]				19.1 ± 0.53	16.8 ± 0.32	13.8 ± 0.35				14 ± 0.72	> 30

More lines, main results first:

IC50 (PANC-1 cells) [µM]	IC50 (BxPC-3 cells) [µM]	IC50 (SK-OV-3 cells) [µM]	IC50 (T24 cells) [µM]	IC50 (MCF-7 cells) [µM]	IC50 (A549 cells) [µM]	SMILES	IC50 (UM-UC-3 cells) [µM]	IC50 (MG-63 cells) [µM]	IC50 (143B cells) [µM]	IC50 (5637 cells) [µM]	IC50 (Hep G2 cells) [µM]
15.7 ± 1.52	13.3 ± 0.87	7.78 ± 0.69				CC(C)(C)c1ccc(NC(=O)Nc2cccc(CNc3ncnc4ccccc34)c2)cc1 [Compound II-9, reference compound]	9.77 ± 0.52	9.24 ± 0.71	10.5 ± 0.43		
> 30	27.6 ± 1.91	> 30				O=C(Nc1ccccc1)Nc1cccc(CNc2ncnc3ccccc23)c1 [Compound II-1, reference compound]	> 30	> 30	> 30		
26.2 ± 2.26	8.43 ± 0.39	15 ± 1.74				O=C(Nc1ccc(C(F)(F)F)cc1)Nc1cccc(CNc2ncnc3ccccc23)c1 [Compound II-13, reference compound]	9.63 ± 0.52	20.8 ± 0.95	7.56 ± 0.27		
20.7 ± 0.96	14.2 ± 0.82	9.27 ± 0.55				O=C(Nc1cccc(CNc2ncnc3ccccc23)c1)Nc1ccc(Cl)cc1Cl [Compound II-17, reference compound]	7.69 ± 0.56	8.54 ± 0.59	10.3 ± 0.67		
> 30	14.3 ± 0.86	14.7 ± 0.98				Cc1ccc(NC(=O)Nc2cccc(CNc3ncnc4ccccc34)c2)cc1 [Compound II-3, reference compound]	17.8 ± 0.57	17.8 ± 0.95	11.3 ± 0.88		
14.8 ± 1.24	9.92 ± 0.41	8.4 ± 0.53				CCc1cccc(CC)c1NC(=O)Nc1cccc(CNc2ncnc3ccccc23)c1 [Compound II-5, reference compound]	8.72 ± 0.36	10.5 ± 0.82	7.26 ± 0.35		
